# Assay results from patent US20080210905A1, “ORGANIC-ELECTROLUMINESCENCE-MATERIAL-CONTAINING SOLUTION, METHOD FOR SYNTHESIZING ORGANIC ELECTROLUMINESCENCE MATERIAL, COMPOUND SYNTHESIZED BY THE METHOD, METHOD FOR FORMING THIN FILM OF ORGANIC ELECTROLUMINESCENCE MATERIAL, THIN FILM OF ORGANIC ELECTROLUMINESCENCE MATERIAL AND ORGANIC …” (Idemitsu Kosan Co., Ltd., priority 2006, published 2008).
# What was measured:
# [1] = Solubility evaluation: compound stirred in toluene, visual check for insoluble matter; type: physicochemical; conditions: for Presence of insoluble matter: 0.01 g of anthracene compound and 1 g of toluene, stirred, visual check; for solubility in toluene: concluded from visual check of 0.01 g compound in 1 g toluene
# Text: In order to evaluate a relationship between the soluble portion B and the solubility, how the solubility was changed depending on the bonding number U of the solubility portion B was examined.
# As the compound, an anthracene compound as represented by the following formula was used.
# A solubility portion B of the compound was structured as represented by the formula (3), and the bonding number of the solubility portion is represented by (a).
# With the above structure, compounds respectively having bonding numbers (a) of 1, 2, 3 and 6 were synthesized.
# Then, 0.01 g of the anthracene compound and 1 g of toluene were put into a glass bottle to be stirred.
# Whether or not any insoluble matter was present in the solution was observed by a visual check.
# In order to evaluate a relationship between unit(s) structuring the soluble portion B and the solubility, how the solubility was changed depending on the structure of the solubility portion B was examined.
# Compounds used in the examination were AN-1, AN-3, AN-4 and an-1.
# For evaluation of the solubility, as in the solubility evaluation 1, 0.01 g of the anthracene compound and 1 g of toluene were put into a glass bottle to be stirred. Then, whether or not any insoluble matter was present in the solution was observed by a visual check.
# [2] = Solubility of compound (a) in toluene, evaluated in advance; type: physicochemical
Presence of insoluble matter [1],solubility in toluene [1] [wt %],solubility in toluene [2] [wt %],Compound
no insoluble matter present,≥ 1,,c1ccc(-c2ccc(-c3cccc(-c4cccc(-c5cccc(-c6cccc(-c7cccc(-c8c9ccccc9c(-c9ccc%10ccccc%10c9)c9ccccc89)c7)c6)c5)c4)c3)cc2)cc1 [AN-4]
,,10,c1ccc(-c2ccccc2-c2ccc3c(-c4ccccc4)c4ccccc4c(-c4ccccc4)c3c2)cc1 [compound (a)]
no insoluble matter present,≥ 1,,c1ccc(-c2cccc(-c3ccc(-c4ccc(-c5cccc(-c6cccc(-c7cccc(-c8c9ccccc9c(-c9ccc%10ccccc%10c9)c9ccccc89)c7)c6)c5)cc4)cc3)c2)cc1 [AN-3]
